According to PubChem BioAssay AID248 (DTP/NCI, 2004):
Inconclusive results and toxic doses are left out. Rule as the data show it: active = T/C of 150% or more; inactive = T/C below 125%.

System: L1210 leukemia ip in BDF1 mice, survival T/C
Test: NCI In Vivo Anticancer Drug Screen. Data for tumor model L1210 Leukemia (intraperitoneal) in B6D2F1 (BDF1) mice
Details: endpoint: mean survival time, higher = longer survival
How it was run: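 Antitumor effect is assessed in tumor-bearing animals. Survival in the compound arm is compared with a vehicle-dosed control arm and expressed as their quotient.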

[1] = dose: 100.0 mg/kg/injection, schedule: Q01DX009 (ip), vehicle: saline
[2] = dose: 200.0 mg/kg/injection, schedule: Q01DX009 (ip), vehicle: saline
[3] = dose: 400.0 mg/kg/injection, schedule: Q01DX009 (ip), vehicle: saline
[4] = dose: 100.0 mg/kg/injection, schedule: Q01DX009 (ip), vehicle: saline with Tween-80
[5] = dose: 100.0 mg/kg/injection, schedule: Q04DX003 (ip), vehicle: saline with Tween-80
[6] = dose: 200.0 mg/kg/injection, schedule: Q04DX003 (ip), vehicle: saline with Tween-80
[7] = dose: 400.0 mg/kg/injection, schedule: Q04DX003 (ip), vehicle: saline with Tween-80
[8] = dose: 75.0 mg/kg/injection, schedule: Q01DX009 (ip), vehicle: Klucel (hydroxypropylcellulose) (HPC)
[9] = dose: 150.0 mg/kg/injection, schedule: Q01DX009 (ip), vehicle: Klucel (hydroxypropylcellulose) (HPC)
[10] = dose: 100.0 mg/kg/injection, schedule: Q04DX002 (ip), vehicle: saline
[11] = dose: 200.0 mg/kg/injection, schedule: Q04DX002 (ip), vehicle: saline
[12] = dose: 400.0 mg/kg/injection, schedule: Q04DX002 (ip), vehicle: saline
[13] = dose: 400.0 mg/kg/injection, schedule: Q04DX002 (ip), vehicle: saline with Tween-80
[14] = dose: 100.0 mg/kg/injection, schedule: Q01DX009 (ip), vehicle: Klucel (hydroxypropylcellulose) (HPC)

Measured: T/C

CCN(CC)CCCC(C)Nc1ncnc2c1C(c1ccccc1)C(C)(C)O2 (centres undefined)
inactive: [1] 106 % of control | [2] 101 % of control | [3] 101 % of control

CCOc1ccn(CC(=O)c2ccc([N+](=O)[O-])o2)c(=O)n1
inactive: dose: 50.0 mg/kg/injection, schedule: Q01DX009 (ip), vehicle: saline with Tween-80 96 % of control | [4] 94 % of control | [5] 98 % of control | [6] 91 % of control

CC(C)COC(=O)CCCCC(=O)OCC(C)C
inactive: [5] 113 % of control | [6] 107 % of control | [7] 110 % of control

NC(=O)CC(O)C(N)=O (centres undefined)
inactive: [1] 94 % of control | dose: 100.0 mg/kg/injection, schedule: Q04DX003 (ip), vehicle: saline 104 % of control | [2] 95 % of control | dose: 200.0 mg/kg/injection, schedule: Q04DX003 (ip), vehicle: saline 106 % of control | [3] 99 % of control | dose: 400.0 mg/kg/injection, schedule: Q04DX003 (ip), vehicle: saline 96 % of control

CC(C)(C)NC(=O)CCC1CC(=O)NC12CCCCC2 (centres undefined)
inactive: [8] 90 % of control | [9] 91 % of control | dose: 300.0 mg/kg/injection, schedule: Q01DX009 (ip), vehicle: Klucel (hydroxypropylcellulose) (HPC) 96 % of control

O=C(O)/C(Cc1cnc2ccccc2n1)=N\O
inactive: [4] 104 % of control | [5] 105 % of control | dose: 200.0 mg/kg/injection, schedule: Q01DX009 (ip), vehicle: saline with Tween-80 104 % of control | [6] 101 % of control | dose: 400.0 mg/kg/injection, schedule: Q01DX009 (ip), vehicle: saline with Tween-80 93 % of control | [7] 100 % of control

O=S(=O)(Nc1cc(Cl)c(NS(=O)(=O)c2ccccc2)c2ccccc12)c1ccccc1
inactive: dose: 75.0 mg/kg/injection, schedule: Q01DX001 (ip), vehicle: Klucel (hydroxypropylcellulose) (HPC) 92 % of control | [8] 92 % of control | dose: 150.0 mg/kg/injection, schedule: Q01DX001 (ip), vehicle: Klucel (hydroxypropylcellulose) (HPC) 101 % of control | [9] 94 % of control | dose: 300.0 mg/kg/injection, schedule: Q01DX001 (ip), vehicle: Klucel (hydroxypropylcellulose) (HPC) 95 % of control

CCCCCCCCCCC(=O)[O][Hg][c]1ccccc1
inactive: dose: 9.38 mg/kg/injection, schedule: Q01DX001 (ip), vehicle: saline 98 % of control | dose: 18.75 mg/kg/injection, schedule: Q01DX001 (ip), vehicle: saline 93 % of control

O=C(O)c1c(Br)c(Br)c(Br)c(Br)c1C(=O)O
inactive: [10] 107 % of control | [11] 110 % of control | [12] 103 % of control

C#CC(O)(c1ccccc1)c1ccc(N(C)C)cc1 (centres undefined)
inactive: [5] 98 % of control | [6] 100 % of control | [7] 89 % of control

c1ccc(Nc2ccc(C(c3ccccc3)(c3ccccc3)c3ccccc3)cc2)cc1
inactive: dose: 25.6 mg/kg/injection, schedule: Q04DX002 (ip), vehicle: saline with Tween-80 97 % of control | dose: 64.0 mg/kg/injection, schedule: Q04DX002 (ip), vehicle: saline with Tween-80 94 % of control | dose: 160.0 mg/kg/injection, schedule: Q04DX002 (ip), vehicle: saline with Tween-80 97 % of control | [13] 91 % of control

CN(C)CCOCCN(C)C
inactive: dose: 100.0 mg/kg/injection, schedule: Q01DX001 (ip), vehicle: saline 102 % of control | dose: 200.0 mg/kg/injection, schedule: Q01DX001 (ip), vehicle: saline 105 % of control | dose: 400.0 mg/kg/injection, schedule: Q01DX001 (ip), vehicle: saline 102 % of control

O=S(=O)(O)c1ccc(Cl)c(Cl)c1
inactive: [10] 107 % of control | [11] 100 % of control | [12] 107 % of control

Nc1cc2c3c(cccc3c1Br)C(=O)N(Cc1ccccc1)C2=O
inactive: dose: 400.0 mg/kg/injection, schedule: Q04DX003 (ip), vehicle: Klucel (hydroxypropylcellulose) (HPC) 88 % of control

CCN(CC)Cc1cccc(Nc2cc(C)nc(/N=C(\N)Nc3ccc(Cl)c(Cl)c3)n2)c1
inactive: dose: 75.0 mg/kg/injection, schedule: Q01DX001 (ip), vehicle: other 98 % of control | dose: 150.0 mg/kg/injection, schedule: Q01DX001 (ip), vehicle: other 95 % of control | dose: 300.0 mg/kg/injection, schedule: Q01DX001 (ip), vehicle: other 95 % of control

CC(=O)Nc1cccc2c1Cc1cc([N+](=O)[O-])ccc1-2
inactive: dose: 50.0 mg/kg/injection, schedule: Q04DX003 (ip), vehicle: Klucel (hydroxypropylcellulose) (HPC) 93 % of control | dose: 100.0 mg/kg/injection, schedule: Q01DX001 (ip), vehicle: carboxymethylcellulose (CMC) 92 % of control | dose: 100.0 mg/kg/injection, schedule: Q04DX003 (ip), vehicle: Klucel (hydroxypropylcellulose) (HPC) 93 % of control | dose: 200.0 mg/kg/injection, schedule: Q01DX001 (ip), vehicle: carboxymethylcellulose (CMC) 92 % of control | dose: 200.0 mg/kg/injection, schedule: Q04DX003 (ip), vehicle: Klucel (hydroxypropylcellulose) (HPC) 94 % of control | dose: 400.0 mg/kg/injection, schedule: Q01DX001 (ip), vehicle: carboxymethylcellulose (CMC) 87 % of control

C[n+]1ccc(/C=C/c2c(Cl)cccc2Cl)c2ccccc21
inactive: dose: 3.13 mg/kg/injection, schedule: Q04DX003 (ip), vehicle: Klucel (hydroxypropylcellulose) (HPC) 94 % of control | dose: 6.25 mg/kg/injection, schedule: Q04DX003 (ip), vehicle: Klucel (hydroxypropylcellulose) (HPC) 98 % of control | dose: 12.5 mg/kg/injection, schedule: Q04DX003 (ip), vehicle: Klucel (hydroxypropylcellulose) (HPC) 93 % of control

Cc1cc(OC(=O)Nc2cccc(Cl)c2Cl)c(C(C)C)cc1Cl
inactive: [14] 97 % of control | dose: 200.0 mg/kg/injection, schedule: Q01DX009 (ip), vehicle: Klucel (hydroxypropylcellulose) (HPC) 94 % of control | dose: 400.0 mg/kg/injection, schedule: Q01DX009 (ip), vehicle: Klucel (hydroxypropylcellulose) (HPC) 100 % of control

COc1c(Cl)c(C(Cl)(Cl)Cl)nc2ccccc12
inactive: dose: 50.0 mg/kg/injection, schedule: Q01DX009 (ip), vehicle: Klucel (hydroxypropylcellulose) (HPC) 101 % of control | [14] 104 % of control

CSCC(O)CSC
inactive: dose: 100.0 mg/kg/injection, schedule: Q04DX002 (ip), vehicle: saline with Tween-80 90 % of control | dose: 200.0 mg/kg/injection, schedule: Q04DX002 (ip), vehicle: saline with Tween-80 93 % of control | [13] 87 % of control

Cc1cc[n+](Cc2ccccc2)cc1
inactive: dose: 12.5 mg/kg/injection, schedule: Q04DX003 (ip), vehicle: saline 96 % of control | dose: 25.0 mg/kg/injection, schedule: Q04DX003 (ip), vehicle: saline 90 % of control

O=[N+]([O-])c1ccc(N2CCOCC2)c2c1no[n+]2[O-]
inactive: dose: 12.5 mg/kg/injection, schedule: Q04DX003 (ip), vehicle: saline with Tween-80 108 % of control | dose: 25.0 mg/kg/injection, schedule: Q04DX003 (ip), vehicle: saline with Tween-80 118 % of control | dose: 50.0 mg/kg/injection, schedule: Q04DX003 (ip), vehicle: saline with Tween-80 116 % of control
